Assay results from patent US20240317777A1, “NOVEL MACROCYCLIC AMINOPYRAZOLE COMPOUNDS AS CDK2 INHIBITORS” (Accutar Biotechnology Inc., priority 2023, published 2024).
Where two headings read alike, the source gives them in different places.

What was measured:
[1] = system: CCNE1-normal SKOV3 cells; assay: Cell growth inhibition of CCNE1-normal SKOV3 cells (CellTiter-Glo); format: cell-based; conditions: Homo sapiens, SK-OV-3, 144 h, 6 days
In short: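 Growth was measured by CellTiter-Glo luminescence after 6 days' compound exposure at 37 °C. Cells were plated one day before dosing at 1000 per well in medium with 10% FBS, and compounds were diluted from DMSO stocks.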

[2] = molecular target: CDK2-CYCLIN E1 (Homo sapiens, UniProt P24941); assay: CDK protein kinase inhibition by ADP-Glo assay, CDK2-CYCLIN E1; format: biochemical; conditions: read-out: CDK2-CYCLINE, IC50
Procedure: (§1) CDK Protein Kinase Inhibition by ADP-Glo Assay
(§2) This ADP-Glo assay measures ADP formed from a kinase reaction and indirectly quantifies the phosphorylation of peptide substrates by the CDK/cyclin protein complexes. The typical assays were carried out in Nanosyn by combining kinase/cyclin complexes, substrates, compounds, and cofactors (ATP and Mg2+) in a well of a 384-well microtiter plate (Corning 3824) and incubating at 22° C. (Table 1). At the end of the incubation, the reaction is quenched, and conversion is detected by luminescence using the Promega ADP-Glo™ Kinase Assay kit (catalog #V9102).
(§3) Final assay buffer mixture contains: • 100 mM HEPES, pH 7.5 • 0.1% BSA • 0.01% Triton X-100 • 1 mM DTT • 5 mM MgCl2 • 10 μM Sodium Orthovanadate • 100 μM Beta-Glycerophosphate • 1000 μM Ultra Pure ATP (provided in the Promega ADP-Glo™ Kinase Assay kit) • 1% DMSO (from compound)
(§4) Upon completion, 5 μL of the ADP Glo reagent was added to each well and the plate was further incubated at room temperature for 45 minutes. 10 uL of the Kinase Detection Reagent was subsequently added to each well. After 10 minutes of incubation, the plate was read and analyzed on the BioTek Synergy microplate reader using BioTek Gen5 software.

[3] = system: Phospho-Rb (Ser807/811) in OVCAR3 cells; assay: Phospho-Rb expression inhibition in OVCAR3 cells quantified by In Cell Western; format: cell-based; conditions: Homo sapiens, OVCAR-3, 24 hours, read-out: OVCAR-3 pRb IC50
In short: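 In-cell western: after 24 h compound exposure at 37° C, fixed OVCAR3 cells co-stained for pRb Ser807/811 (800 nm channel) and total Rb (680 nm channel), imaged by LI-COR Odyssey.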

[4] = molecular target: CDK6-CYCLIN D3 (Homo sapiens, UniProt Q00534); assay: CDK protein kinase inhibition by ADP-Glo assay, CDK6-CYCLIN D3; format: biochemical; conditions: for IC50: read-out: CDK6-CYCLIND3, IC50; for CDK2 Fold selectivity against CDK6: Table 38, fold selectivity for CDK2 over CDK6, recombinant CDK kinases
Chain of CDK6-CYCLIN D3 (Q00534 whole entry): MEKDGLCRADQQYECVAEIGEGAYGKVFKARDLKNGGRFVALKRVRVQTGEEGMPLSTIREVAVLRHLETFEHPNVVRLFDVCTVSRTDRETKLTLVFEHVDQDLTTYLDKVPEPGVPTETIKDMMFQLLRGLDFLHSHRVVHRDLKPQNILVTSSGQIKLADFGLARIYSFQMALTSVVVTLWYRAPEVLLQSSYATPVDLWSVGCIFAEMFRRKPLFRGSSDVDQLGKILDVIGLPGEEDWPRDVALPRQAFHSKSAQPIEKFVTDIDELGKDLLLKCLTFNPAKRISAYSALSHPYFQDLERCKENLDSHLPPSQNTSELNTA
Chain of CDK6-CYCLIN D3 (P30281 whole entry partner): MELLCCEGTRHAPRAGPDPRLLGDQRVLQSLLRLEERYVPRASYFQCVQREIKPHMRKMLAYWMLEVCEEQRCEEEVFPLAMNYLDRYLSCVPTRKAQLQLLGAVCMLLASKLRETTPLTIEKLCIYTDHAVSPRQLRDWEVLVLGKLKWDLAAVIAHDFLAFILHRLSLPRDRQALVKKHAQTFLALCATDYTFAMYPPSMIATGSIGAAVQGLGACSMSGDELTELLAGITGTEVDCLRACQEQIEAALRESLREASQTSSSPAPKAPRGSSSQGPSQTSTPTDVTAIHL
Procedure: as §1, §2, §3, §4

[5] = molecular target: CDK9-CYCLIN T1 (Homo sapiens, UniProt P50750); assay: CDK protein kinase inhibition by ADP-Glo assay, CDK9-CYCLIN T1; format: biochemical; conditions: for IC50: read-out: CDK9-CYCLINT1, IC50; for CDK2 Fold selectivity against CDK9: Table 38, fold selectivity for CDK2 over CDK9, recombinant CDK kinases
Chain of CDK9-CYCLIN T1 (P50750 whole entry): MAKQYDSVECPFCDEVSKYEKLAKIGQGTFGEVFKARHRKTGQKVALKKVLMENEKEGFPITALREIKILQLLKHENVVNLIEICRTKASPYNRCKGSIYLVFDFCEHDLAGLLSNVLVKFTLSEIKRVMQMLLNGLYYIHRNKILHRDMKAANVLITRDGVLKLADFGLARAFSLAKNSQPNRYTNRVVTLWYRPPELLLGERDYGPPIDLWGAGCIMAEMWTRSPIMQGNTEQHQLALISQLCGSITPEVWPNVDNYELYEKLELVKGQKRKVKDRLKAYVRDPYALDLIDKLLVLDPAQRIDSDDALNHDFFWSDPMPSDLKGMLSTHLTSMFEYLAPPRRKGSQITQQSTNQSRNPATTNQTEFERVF
Chain of CDK9-CYCLIN T1 (O60563 whole entry partner): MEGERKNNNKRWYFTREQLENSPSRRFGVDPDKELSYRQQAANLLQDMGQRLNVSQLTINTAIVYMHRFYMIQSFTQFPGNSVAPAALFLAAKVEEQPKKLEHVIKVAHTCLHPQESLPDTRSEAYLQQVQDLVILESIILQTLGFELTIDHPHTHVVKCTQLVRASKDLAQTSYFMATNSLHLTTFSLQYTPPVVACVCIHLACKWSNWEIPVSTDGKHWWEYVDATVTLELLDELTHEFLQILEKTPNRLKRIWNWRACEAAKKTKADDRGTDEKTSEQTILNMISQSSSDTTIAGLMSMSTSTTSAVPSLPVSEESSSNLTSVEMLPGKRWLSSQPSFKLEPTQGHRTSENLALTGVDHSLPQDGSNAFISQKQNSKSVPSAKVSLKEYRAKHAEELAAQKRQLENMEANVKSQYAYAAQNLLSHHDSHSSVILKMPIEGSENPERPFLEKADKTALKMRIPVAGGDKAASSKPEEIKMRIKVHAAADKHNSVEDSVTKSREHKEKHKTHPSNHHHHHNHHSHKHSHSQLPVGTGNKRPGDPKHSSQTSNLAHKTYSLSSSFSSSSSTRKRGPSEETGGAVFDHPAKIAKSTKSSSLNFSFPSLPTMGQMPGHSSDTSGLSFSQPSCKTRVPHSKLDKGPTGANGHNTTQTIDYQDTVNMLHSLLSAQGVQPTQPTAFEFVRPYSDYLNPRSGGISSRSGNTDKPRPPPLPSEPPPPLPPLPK
Procedure: as §1, §2, §3, §4

[6] = system: CCNE1-amplified OVCAR3 cells; assay: Cell growth inhibition of CCNE1-amplified OVCAR3 cells (CellTiter-Glo); format: cell-based; conditions: Homo sapiens, OVCAR-3, 144 h, 6 days
In short: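 Growth read-out was CellTiter-Glo luminescence, taken after 10 min at room temperature at the end of a 6-day compound exposure at 37 °C. Compounds were diluted from DMSO stocks across various concentrations.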

[7] = molecular target: CDK4-CYCLIN D1 (Homo sapiens, UniProt P11802); assay: CDK protein kinase inhibition by ADP-Glo assay, CDK4-CYCLIN D1; format: biochemical; conditions: for IC50: read-out: CDK4-CYCLIND1, IC50; for CDK2 Fold selectivity against CDK4: Table 38, fold selectivity for CDK2 over CDK4, recombinant CDK kinases
Chain of CDK4-CYCLIN D1 (P11802 whole entry): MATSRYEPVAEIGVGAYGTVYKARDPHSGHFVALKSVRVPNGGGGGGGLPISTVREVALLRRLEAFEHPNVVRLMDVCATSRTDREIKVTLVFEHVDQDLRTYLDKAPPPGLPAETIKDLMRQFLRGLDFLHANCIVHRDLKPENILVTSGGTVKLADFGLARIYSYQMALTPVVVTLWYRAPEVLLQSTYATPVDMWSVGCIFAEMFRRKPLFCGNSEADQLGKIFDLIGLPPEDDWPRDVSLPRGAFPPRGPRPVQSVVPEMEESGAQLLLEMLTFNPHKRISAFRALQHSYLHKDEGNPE
Chain of CDK4-CYCLIN D1 (P24385 whole entry partner): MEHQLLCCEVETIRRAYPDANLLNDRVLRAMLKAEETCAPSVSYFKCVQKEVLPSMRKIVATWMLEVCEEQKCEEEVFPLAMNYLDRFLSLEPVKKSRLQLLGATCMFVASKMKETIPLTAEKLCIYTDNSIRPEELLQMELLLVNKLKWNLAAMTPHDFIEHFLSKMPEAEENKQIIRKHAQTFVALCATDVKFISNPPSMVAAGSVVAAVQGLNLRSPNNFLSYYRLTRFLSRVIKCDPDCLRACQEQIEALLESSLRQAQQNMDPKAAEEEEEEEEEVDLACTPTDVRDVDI
Procedure: as §1, §2, §3, §4

[8] = molecular target: CDK1-CYCLIN B (Homo sapiens, UniProt P06493); assay: CDK protein kinase inhibition by ADP-Glo assay, CDK1-CYCLIN B; format: biochemical; conditions: for IC50: read-out: CDK1-CYCLINB, IC50; for CDK2 Fold selectivity against CDK1: Table 38, fold selectivity for CDK2 over CDK1, recombinant CDK kinases
Chain of CDK1-CYCLIN B (P06493 whole entry): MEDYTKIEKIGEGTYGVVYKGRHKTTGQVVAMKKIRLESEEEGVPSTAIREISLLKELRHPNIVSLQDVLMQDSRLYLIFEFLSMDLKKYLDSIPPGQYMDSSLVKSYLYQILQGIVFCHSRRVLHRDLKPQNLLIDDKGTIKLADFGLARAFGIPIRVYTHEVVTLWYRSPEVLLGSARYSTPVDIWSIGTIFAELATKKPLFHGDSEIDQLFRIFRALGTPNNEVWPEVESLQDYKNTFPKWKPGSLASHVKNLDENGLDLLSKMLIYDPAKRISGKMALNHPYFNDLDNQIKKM
Chain of CDK1-CYCLIN B (P14635 whole entry partner): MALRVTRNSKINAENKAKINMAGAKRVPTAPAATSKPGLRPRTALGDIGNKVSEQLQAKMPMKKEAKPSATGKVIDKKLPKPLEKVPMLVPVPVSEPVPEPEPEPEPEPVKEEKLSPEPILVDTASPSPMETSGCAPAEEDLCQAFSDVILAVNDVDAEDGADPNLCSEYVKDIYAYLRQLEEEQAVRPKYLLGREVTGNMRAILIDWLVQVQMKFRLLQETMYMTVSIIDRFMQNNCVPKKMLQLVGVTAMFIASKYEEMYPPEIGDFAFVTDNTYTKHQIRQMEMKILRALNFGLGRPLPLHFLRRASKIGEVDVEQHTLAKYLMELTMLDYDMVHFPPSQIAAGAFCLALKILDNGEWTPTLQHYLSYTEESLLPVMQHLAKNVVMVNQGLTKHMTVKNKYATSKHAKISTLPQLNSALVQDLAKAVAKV
Procedure: as §1, §2, §3, §4

[9] = Table 37, recombinant CDK kinase

Row | SMILES | IC50 [1] [nM] | IC50 [3] [nM] | IC50 [6] [nM] | IC50 [2, 9] [nM] | IC50 [4, 9] [nM] | CDK2 Fold selectivity against CDK6 [4] | IC50 [5, 9] [nM] | CDK2 Fold selectivity against CDK9 [5] | IC50 [7, 9] [nM] | CDK2 Fold selectivity against CDK4 [7] | IC50 [8, 9] [nM] | CDK2 Fold selectivity against CDK1 [8] | also measured
1 | O=C1N[C@H]2C[C@@H](CC(F)(F)c3cc(ccn3)Nc3cc(n[nH]3)[C@H]3CC[C@H](C3)O1)C2 (single isomer, unassigned) [Compound 170, (1^1S,1^3R,7^1S,7^3R,Z)-5,5-difluoro-2^1H-10-oxa-3,8-diaza-4(4,2)-pyridina-2(3,5)-pyrazola-1(1,3)-cyclopentana-7(1,3)-cyclobutanacyclodecaphan-9-one] | 50 to 250 | 2 to 10 | 2 to 10 |  |  |  |  |  |  |  |  |  | IC50 ([2]; ADP-Glo, 1000 μM ATP, Table 31): ≤ 10 nM; IC50 ([4]; ADP-Glo, 1000 μM ATP, Table 31): 10 to 50 nM; CDK2 Fold selectivity, CDK6 ([4]; CDK2 versus CDK6, Table 32): E (E, <20); IC50 ([5]; ADP-Glo, 1000 μM ATP, Table 31): 10 to 50 nM; CDK2 Fold selectivity, CDK9 ([5]; CDK2 versus CDK9, Table 32): E (E, <20); IC50 ([7]; ADP-Glo, 1000 μM ATP, Table 31): 10 to 50 nM; CDK2 Fold selectivity, CDK4 ([7]; CDK2 versus CDK4, Table 32): E (E, <20); IC50 ([8]; ADP-Glo, 1000 μM ATP, Table 31): ≤ 10 nM; CDK2 Fold selectivity, CDK1 ([8]; CDK2 versus CDK1, Table 32): E (E, <20)
2 | O=C1NCCCCCc2cc(ccn2)Nc2cc([nH]n2)[C@H]2CC[C@H](C2)O1 [Compound 4, (1^1S,1^3R,Z)-2^1H-12-oxa-3,10-diaza-4(4,2)-pyridina-2(3,5)-pyrazola-1(1,3)-cyclopentanacyclododecaphan-11-one] | 250 to 1250 | 10 to 50 | 50 to 250 |  |  |  |  |  |  |  |  |  | IC50 ([2]; ADP-Glo, 1000 μM ATP, Table 7): ≤ 10 nM; IC50 ([4]; ADP-Glo, 1000 μM ATP, Table 7): 50 to 100 nM; CDK2 Fold Sensitivity, CDK6 ([4]; CDK2 versus CDK6, Table 8): E (E, <20); IC50 ([5]; ADP-Glo, 1000 μM ATP, Table 7): 100 to 500 nM; CDK2 Fold Sensitivity, CDK9 ([5]; CDK2 versus CDK9, Table 8): D (D, >20 and ≤50); IC50 ([7]; ADP-Glo, 1000 μM ATP, Table 7): 50 to 100 nM; CDK2 Fold Sensitivity, CDK4 ([7]; CDK2 versus CDK4, Table 8): E (E, <20); IC50 ([8]; ADP-Glo, 1000 μM ATP, Table 7): 100 to 500 nM; CDK2 fold selectivity over CDK1 ([8]; CDK2 versus CDK1, Table 8): D (D, >20 and ≤50)
3 | O=C1NC2CC(COc3cc(ccn3)Nc3cc(n[nH]3)C3C[C@H](F)[C@@H](C3)O1)C2 [Compound 230, (1^1S,1^3R,1^4S,7^1R,7^3S,Z)-1^4-fluoro-2^1H-5,10-dioxa-3,8-diaza-4(4,2)-pyridina-2(3,5)-pyrazola-1(1,3)-cyclopentana-7(1,3)-cyclobutanacyclodecaphan-9-one] |  | 10 to 50 | 10 to 50 | ≤ 10 | 10 to 50 | E (E, <20) | 10 to 50 | E (E, <20) | 10 to 50 | E (E, <20) | 10 to 50 | E (E, <20) | 
4 | O=C1NC2CC(COc3cc(ccn3)Nc3[nH]nc(c3F)C3C[C@@H](F)[C@H](C3)O1)C2 [Compound 231, (1^1R,1^3S,1^4R,7^1S,7^3R,E)-1^4,2^4-difluoro-2^1H-5,10-dioxa-3,8-diaza-4(4,2)-pyridina-2(3,5)-pyrazola-1(1,3)-cyclopentana-7(1,3)-cyclobutanacyclodecaphan-9-one] |  | 10 to 50 | 10 to 50 | ≤ 10 | 100 to 500 | B (B, >100 and ≤500) | > 500 | B (B, >100 and ≤500) | 100 to 500 | B (B, >100 and ≤500) | 50 to 100 | E (E, <20) | 
5 | O=C1NC2CC(COc3cc(ccn3)Nc3[nH]nc(c3F)C3C[C@H](F)[C@@H](C3)O1)C2 [Compound 232, (1^1S,1^3R,1^4S,7^1R,7^3S,E)-1^4,2^4-difluoro-2^1H-5,10-dioxa-3,8-diaza-4(4,2)-pyridina-2(3,5)-pyrazola-1(1,3)-cyclopentana-7(1,3)-cyclobutanacyclodecaphan-9-one] |  | 10 to 50 | 50 to 250 | 10 to 50 | 100 to 500 | E (E, <20) | 100 to 500 | E (E, <20) | 50 to 100 | E (E, <20) | 100 to 500 | E (E, <20) | 
